Assay results taken from patent US20060154923A1, “N-phenyl-3-cyclopropylpyrazole-4-carbonitriles as ectoparasiticidal agents” (priority 2002, published 2006).
Read-outs that look alike come from different tables or passages of the source.

How the values were obtained:
Type in all cases: in vivo
[1] = system: Ctenocephatides felis, adult cat fleas; test: Contact activity against adult cat fleas, coated glass vial assay
Procedure: Evaluation of the Efficacy of Test Compounds Against Adult Cat Fleas
(§1) The contact activity of a test compound against Ctenocephatides felis, adult cat fleas, is evaluated in a coated, glass vial assay. In this evaluation, a solution of test compound in acetone is allowed to dry on the interior surface of a 20 mL vial. Ten unfed adult cat fleas are added to the treated vial and mortality is assessed periodically for up to 48 h. All treatments are replicated 2 times. The data are averaged.

[2] = system: newly emerged larvae of Lucilia sericata, blowfly; test: Efficacy against blowfly larvae, treated paper/serum bioassay; conditions: blowfly larvae; for mortality at 0.2 ppm / mortality at 2 ppm / mortality at 20 ppm: Lucilia sericata
Procedure: Evaluation of Efficacy of Test Compounds Against Blowfly Larvae
The efficacy of a test compound against newly emerged larvae of Lucilia sericata, blowfly, is evaluated using a treated paper/serum bioassay. In this evaluation, a solution of test compound in acetone is applied to a filter paper disc and the disc is allowed to dry. Bovine serum and about 20 newly emerged blowfly larvae are added to the treated paper disc and the mortality is assessed at 24 h and 48 h. The data are averaged.

[3] = system: Rhipacephalus sanguineus, adult ticks; test: Contact activity against adult ticks, coated glass vial assay
Procedure: Evaluation of the Efficacy of Test Compounds Against Adult Ticks
as §1, with “Rhipacephalus sanguineus,” for “Ctenocephatides felis,”, “ticks,” for “cat fleas,”, “coated” for “coated,”, “Five” for “Ten”, “ticks” for “cat fleas”

[4] = Conc. 0.2 ppm, 24 h, read-out: % Mortality 24 h
[5] = Conc. 0.2 ppm, 48 h, read-out: % Mortality 48 h
[6] = Conc. 2.0 ppm, 24 h, read-out: % Mortality 24 h
[7] = Conc. 2.0 ppm, 48 h, read-out: % Mortality 48 h
[8] = Conc. 20.0 ppm, 24 h, read-out: % Mortality 24 h
[9] = Conc. 20.0 ppm, 48 h, read-out: % Mortality 48 h

SMILES	% Mortality 4 h ([1]; Conc. 2 ug/cm2, 4 h) [%]	% Mortality 24 h ([1]; Conc. 2 ug/cm2, 24 h) [%]	% Mortality 24 h ([2]; Conc. 2.0 ppm, 24 h) [%]	% Mortality 48 h ([2]; Conc. 2.0 ppm, 48 h) [%]	% Mortality 24 h ([2]; Conc. 20.0 ppm, 24 h) [%]	% Mortality 48 h ([2]; Conc. 20.0 ppm, 48 h) [%]	further results
CCCOC=Nc1c(C#N)c(C2(C)CC2(Cl)Cl)nn1-c1c(Cl)cc(C(F)(F)F)cc1Cl (racemic) [Example 39]	0	70	70	70	100	100	% Mortality 24 h ([2]; Conc. 0.2 ppm, 24 h): 0%; % Mortality 48 h ([2]; Conc. 0.2 ppm, 48 h): 0%
CCOC=Nc1c(C#N)c(C2(C)CC2(Cl)Cl)nn1-c1c(Cl)cc(C(F)(F)F)cc1Cl (racemic) [Example 40]	0	100	0	0	100	100	
CC1(c2nn(-c3c(Cl)cc(C(F)(F)F)cc3Cl)c(Cl)c2C#N)CC1(Cl)Cl (centres unmarked) [Example 4, 5-Chloro-3-(2,2-dichloro-1-methylcyclopropyl)-1-[2,6-dichloro-4-(trifluoromethyl)phenyl]-1H-pyrazole-4-carbonitrile]	100	100					% Mortality 4 h ([1]; Conc. 0.002 ug/cm2, 4 h): 20%; % Mortality 24 h ([1]; Conc. 0.002 ug/cm2, 24 h): 100%; % Mortality 4 h ([1]; Conc. 0.2 ug/cm2, 4 h): 60%; % Mortality 24 h ([1]; Conc. 0.2 ug/cm2, 24 h): 100%; % Mortality 4 h ([3]; Conc. 0.78 ug/cm2, 4 h): 60%; % Mortality 24 h ([3]; Conc. 0.78 ug/cm2, 24 h): 100%; % Mortality 4 h ([3]; Conc. 7.80 ug/cm2, 4 h): 60%; % Mortality 24 h ([3]; Conc. 7.80 ug/cm2, 24 h): 100%; mortality at 0.2 ppm [2, 4]: 100%; mortality at 0.2 ppm [2, 5]: 100%; mortality at 2 ppm [2, 6]: 100%; mortality at 2 ppm [2, 7]: 100%; mortality at 20 ppm [2, 8]: 100%; mortality at 20 ppm [2, 9]: 100%
CC1(c2nn(-c3c(Cl)cc(C(F)(F)F)cc3Cl)cc2C#N)CC1(Cl)Cl (centres unmarked) [Example 5]	0	33					
CC1(c2nn(-c3c(Cl)cc(Cl)cc3Cl)cc2C#N)CC1(Cl)Cl (centres unmarked) [Example 6]					70	70	% Mortality 24 h ([2]; Conc. 1.0 ppm, 24 h): 10%; % Mortality 48 h ([2]; Conc. 1.0 ppm, 48 h): 10%
CC1C(Cl)(Cl)C1(C)c1nn(-c2c(Cl)cc(C(F)(F)F)cc2Cl)cc1C#N (centres unmarked) [Example 7]	0	100	0	0	77	90	% Mortality 4 h ([3]; Conc. 0.78 ug/cm2, 4 h): 0%; % Mortality 24 h ([3]; Conc. 0.78 ug/cm2, 24 h): 10%; % Mortality 4 h ([3]; Conc. 7.80 ug/cm2, 4 h): 10%; % Mortality 24 h ([3]; Conc. 7.80 ug/cm2, 24 h): 80%
COc1ccc(C2(c3nn(-c4c(Cl)cc(C(F)(F)F)cc4Cl)cc3C#N)CC2)cc1 [Example 9]					0	0	
N#Cc1cn(-c2c(Cl)cc(C(F)(F)F)cc2Cl)nc1C1(c2ccc(Cl)cc2)CC1 [Example 10]					0	0	
CC1(c2nn(-c3c(Cl)cc(Cl)cc3Cl)cc2C#N)CC1 [Example 11]					0	0	
COc1ccc(C2(c3nn(-c4c(Cl)cc(Cl)cc4Cl)cc3C#N)CC2)cc1 [Example 13]					0	0	
CC1(c2nn(-c3c(Cl)cc(C(F)(F)F)cc3Cl)cc2C#N)CC1(Br)Br (centres unmarked) [Example 14]	10	100	100	100	95	100	% Mortality 4 h ([3]; Conc. 0.78 ug/cm2, 4 h): 40%; % Mortality 24 h ([3]; Conc. 0.78 ug/cm2, 24 h): 40%; % Mortality 4 h ([3]; Conc. 7.80 ug/cm2, 4 h): 50%; % Mortality 24 h ([3]; Conc. 7.80 ug/cm2, 24 h): 80%; % Mortality 24 h ([2]; Conc. 0.2 ppm, 24 h): 50%; % Mortality 48 h ([2]; Conc. 0.2 ppm, 48 h): 50%
CC1(c2nn(-c3c(Cl)cc(Cl)cc3Cl)cc2C#N)CC1(Br)Br (centres unmarked) [Example 15]	10	80	95	95	90	90	% Mortality 24 h ([2]; Conc. 0.2 ppm, 24 h): 0%; % Mortality 48 h ([2]; Conc. 0.2 ppm, 48 h): 0%
N#Cc1cn(-c2c(Cl)cc(C(F)(F)F)cc2Cl)nc1C1(c2ccc(Cl)cc2Cl)CC1 [Example 17]					0	0	
N#Cc1cn(-c2c(Cl)cc(Cl)cc2Cl)nc1C1(c2ccc(Cl)cc2Cl)CC1 [Example 18]					0	0	
CC1(c2nn(-c3c(Cl)cc(C(F)(F)F)cc3Cl)c(N)c2C#N)CC1(Cl)Cl (centres unmarked) [Example 19, 5-Amino-3-(2,2-dichloro-1-methylcyclopropyl)-1-[2,6-dichloro-4-(trifluoromethyl)phenyl]-1H-pyrazole-4-carbonitrile]	0	10					% Mortality 4 h ([3]; Conc. 0.78 ug/cm2, 4 h): 0%; % Mortality 24 h ([3]; Conc. 0.78 ug/cm2, 24 h): 20%; % Mortality 4 h ([3]; Conc. 7.80 ug/cm2, 4 h): 40%; % Mortality 24 h ([3]; Conc. 7.80 ug/cm2, 24 h): 70%; mortality at 0.2 ppm [2, 4]: 0%; mortality at 0.2 ppm [2, 5]: 0%; mortality at 2 ppm [2, 6]: 100%; mortality at 2 ppm [2, 7]: 100%; mortality at 20 ppm [2, 8]: 75%; mortality at 20 ppm [2, 9]: 95%
N#Cc1c(C2CC2)nn(-c2c(Cl)cc(C(F)(F)F)cc2Cl)c1N [Example 24]							% Mortality 24 h ([2]; Conc. 10.0 ppm, 24 h): 0%; % Mortality 48 h ([2]; Conc. 10.0 ppm, 48 h): 0%
CC1(c2nn(-c3c(Cl)cc(Cl)cc3Cl)c(N)c2C#N)CC1(Cl)Cl (centres unmarked) [Example 25]					5	5	% Mortality 24 h ([2]; Conc. 10.0 ppm, 24 h): 0%; % Mortality 48 h ([2]; Conc. 10.0 ppm, 48 h): 0%
N#Cc1c(C2CC2)nn(-c2c(Cl)cc(C(F)(F)F)cc2Cl)c1Cl [Example 26]	100	100	0	0	97	97	% Mortality 24 h ([2]; Conc. 10.0 ppm, 24 h): 0%; % Mortality 48 h ([2]; Conc. 10.0 ppm, 48 h): 50%
CC1(c2nn(-c3c(Cl)cc(Cl)cc3Cl)c(Cl)c2C#N)CC1(Cl)Cl (centres unmarked) [Example 27]	10	100	100	100	100	100	% Mortality 24 h ([2]; Conc. 0.2 ppm, 24 h): 0%; % Mortality 48 h ([2]; Conc. 0.2 ppm, 48 h): 0%
CC1(c2nn(-c3c(Cl)cc(Cl)cc3Cl)c(Br)c2C#N)CC1(Cl)Cl (centres unmarked) [Example 28]	0	10	95	100	100	100	% Mortality 24 h ([2]; Conc. 0.2 ppm, 24 h): 0%; % Mortality 48 h ([2]; Conc. 0.2 ppm, 48 h): 0%
CC1(c2nn(-c3c(Cl)cc(C(F)(F)F)cc3Cl)c([N+](=O)[O-])c2C#N)CC1(Cl)Cl (centres unmarked) [Example 30]	0	100			20	20	% Mortality 24 h ([2]; Conc. 10.0 ppm, 24 h): 10%; % Mortality 48 h ([2]; Conc. 10.0 ppm, 48 h): 50%
CCN(CC)c1c(C#N)c(C2(C)CC2(Cl)Cl)nn1-c1c(Cl)cc(C(F)(F)F)cc1Cl (centres unmarked) [Example 33]	20	100	90	90	100	100	% Mortality 24 h ([2]; Conc. 0.2 ppm, 24 h): 0%; % Mortality 48 h ([2]; Conc. 0.2 ppm, 48 h): 0%
CC(C)(C)C(=O)Nc1c(C#N)c(C2(C)CC2(Cl)Cl)nn1-c1c(Cl)cc(C(F)(F)F)cc1Cl (centres unmarked) [Example 34]					0	0	
CC1(c2nn(-c3c(Cl)cc(C(F)(F)F)cc3Cl)c(N(C(=O)C3CC3)C(=O)C3CC3)c2C#N)CC1(Cl)Cl (centres unmarked) [Example 35]					0	0	
CC1(c2nn(-c3c(Cl)cc(C(F)(F)F)cc3Cl)c(NC(=O)C3CC3)c2C#N)CC1(Cl)Cl (centres unmarked) [Example 36]					10	10	% Mortality 24 h ([2]; Conc. 10.0 ppm, 24 h): 0%
COC=Nc1c(C#N)c(C2(C)CC2(Cl)Cl)nn1-c1c(Cl)cc(C(F)(F)F)cc1Cl (centres unmarked) [Example 37]	10	100	0	0	100	100	
CN(C)C=Nc1c(C#N)c(C2(C)CC2(Cl)Cl)nn1-c1c(Cl)cc(C(F)(F)F)cc1Cl (centres unmarked) [Example 38]					0	0	
